# From ChEMBL document CHEMBL1138629, “Synthesis of 61-bis(1-adamantylcarbamoyl)-1,2-methano[60]fullerene and its antagonistic effect on haloperidol-induced catalepsy in mice” (Bioorg Med Chem Lett, 2004)
# Molecular target: T1, Fatty-acid amide hydrolase 1 (Mus musculus, UniProt O08914)
# T1 sequence (O08914 whole entry): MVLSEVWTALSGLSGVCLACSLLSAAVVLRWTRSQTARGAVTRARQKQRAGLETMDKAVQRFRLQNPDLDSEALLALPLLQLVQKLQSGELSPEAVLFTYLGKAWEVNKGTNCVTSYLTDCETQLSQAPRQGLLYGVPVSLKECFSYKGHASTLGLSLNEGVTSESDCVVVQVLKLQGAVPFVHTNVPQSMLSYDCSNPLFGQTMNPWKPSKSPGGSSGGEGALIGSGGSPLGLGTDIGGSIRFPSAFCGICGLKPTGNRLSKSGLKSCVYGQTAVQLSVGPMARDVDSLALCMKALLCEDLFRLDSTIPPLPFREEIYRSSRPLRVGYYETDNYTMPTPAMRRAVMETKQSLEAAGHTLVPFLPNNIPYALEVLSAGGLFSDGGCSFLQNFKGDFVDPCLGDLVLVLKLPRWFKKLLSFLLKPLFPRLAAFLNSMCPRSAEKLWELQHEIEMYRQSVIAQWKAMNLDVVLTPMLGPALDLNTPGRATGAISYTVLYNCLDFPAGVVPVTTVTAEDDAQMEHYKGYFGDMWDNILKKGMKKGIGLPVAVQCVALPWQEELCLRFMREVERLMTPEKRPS
# Assay: Inhibitory concentration against mouse fatty acid amide hydrolase
# Format: functional
structure (smiles),measurement,value
NC(=O)CCC/C=C\C/C=C\C/C=C\C/C=C\CCCCCC12CC3CC(CC(C3)C1)C2,IC50,37.4 µM
